Experimental data: patent publication US20240150356A1, “Pyrimidine amide compounds and use thereof” (ALPHALA CO., LTD., priority 2019, published 2024)
Where two headings read alike, the source gives them in different places.

Test system: Hep3B cells (hepatocellular carcinoma cell line)
Test: In vitro MTS cell viability assay (NCI-60 methodology), Hep3B
Type: cell-based
Details: Homo sapiens, 48 h, 2 days drug incubation, 50% reduction vs time zero, read-out: Hep3B LC50
Summary of the method: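 Hep3B cells given five 2-fold dilutions of compound for 2 days, with viability by MTS measured at time zero and at end. LC50 is the concentration giving a 50% fall in viable cells relative to the start of treatment, per NCI-60 formula.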

SMILES: O=C(Nc1nc(N2CCC(F)(F)C2)nc2c1cnn2C1CCCCC1)c1ccc([N+](=O)[O-])s1 [Compound 10-1, N-(1-cyclohexyl-6-(3,3-difluoropyrrolidin-1-yl)-1H-pyrazolo[3,4-d]pyrimidin-4-yl)-5-nitrothiophene-2-carboxamide]
- LC50 (Table 10, MTS): 1250 nM

SMILES: CCOCCOCCOc1ccc(-c2nc(NC(=O)c3ccc([N+](=O)[O-])s3)c3cnn(-c4ccc(F)cc4)c3n2)cn1 [Compound 6-137, N-(6-(6-(2-(2-ethoxyethoxy)ethoxy)pyridin-3-yl)-1-(4-fluorophenyl)-1H-pyrazolo[3,4-d]pyrimidin-4-yl)-5-nitrothiophene-2-carboxamide]
- LC50 (Table 6, MTS): 180 nM

SMILES: O=C(Nc1nc(-c2ccc(C(F)(F)F)c(F)c2)nc2c1cnn2-c1ccccc1)c1ccc([N+](=O)[O-])s1 [Compound 5-52, N-(6-(3-fluoro-4-(trifluoromethyl)phenyl)-1-phenyl-1H-pyrazolo[3,4-d]pyrimidin-4-yl)-5-nitrothiophene-2-carboxamide]
- LC50 (Table 5, MTS): > 1250 nM

SMILES: O=C(Nc1nc(-c2ccc(C(F)(F)F)cc2F)nc2c1cnn2-c1cccc(Cl)c1)c1ccc([N+](=O)[O-])s1 [Compound 6-41, N-(1-(3-chlorophenyl)-6-(2-fluoro-4-(trifluoromethyl)phenyl)-1H-pyrazolo[3,4-d]pyrimidin-4-yl)-5-nitrothiophene-2-carboxamide]
- LC50 (Table 6, MTS): 320 nM

SMILES: CS(=O)(=O)c1ccc(-c2nc(NC(=O)c3ccc([N+](=O)[O-])s3)c3cnn(C4CCCCC4)c3n2)cc1 [Compound 10-34, N-(1-cyclohexyl-6-(4-(methylsulfonyl)phenyl)-1H-pyrazolo[3,4-d]pyrimidin-4-yl)-5-nitrothiophene-2-carboxamide]
- LC50 (Table 10, MTS): 930 nM

SMILES: Cc1csc2c(NC(=O)c3ccc([N+](=O)[O-])s3)nc(-c3cccc(C(F)(F)F)c3)nc12 [Compound 4-3, N-(7-methyl-2-(3-(trifluoromethyl)phenyl)thieno[3,2-1]pyrimidin-4-yl)-5-nitrothiophene-2-carboxamide]
- LC50 (Table 4, MTS): 880 nM

SMILES: Cn1ncc2c(NC(=O)c3ccc([N+](=O)[O-])s3)nc(-c3ccc(C(C)(C)C)cc3)nc21 [Compound 1-1, N-(6-(4-(tert-butyl)phenyl)-1-methyl-1H-pyrazolo[3,4-d]pyrimidin-4-yl)-5-nitrothiophene-2-carboxamide]
- LC50 (Table 1, MTS): 1800 nM

SMILES: O=C(Nc1nc(-c2ccccc2)nc2c1cnn2-c1ccccc1)c1ccc([N+](=O)[O-])s1 [Compound 5-23, N-(1,6-diphenyl-1H-pyrazolo[3,4-d]pyrimidin-4-yl)-5-nitrothiophene-2-carboxamide]
- LC50 (Table 5, MTS): 430 nM

SMILES: O=C(Nc1nc(-c2ccc(C(F)(F)F)cc2F)nc2c1cnn2-c1ccccc1)c1ccc([N+](=O)[O-])s1 [Compound 5-51, N-(6-(2-fluoro-4-(trifluoromethyl)phenyl)-1-phenyl-1H-pyrazolo[3,4-d]pyrimidin-4-yl)-5-nitrothiophene-2-carboxamide]
- LC50 (Table 5, MTS): 370 nM

SMILES: O=C(Nc1nc(-c2ccc(Cl)c(Cl)c2)nc2c1cnn2-c1ccccc1)c1ccc([N+](=O)[O-])s1 [Compound 5-48, N-(6-(3,4-dichlorophenyl)-1-phenyl-1H-pyrazolo[3,4,d]pyrimidin-4-yl)-5-nitrothiophene-2-carboxamide]
- LC50 (Table 5, MTS): 410 nM

SMILES: O=C(Nc1nc(-c2cccc(Cl)c2)nc2c1cnn2-c1cccc(Cl)c1)c1ccc([N+](=O)[O-])s1 [Compound 6-37, N-(1,6-bis(3-chlorophenyl)-1H-pyrazolo[3,4-d]pyrimidin-4-yl)-5-nitrothiophene-2-carboxamide]
- LC50 (Table 6, MTS): 230 nM

SMILES: Cc1nn(C)c2c(NC(=O)c3ccc([N+](=O)[O-])s3)nc(-c3ccc(OC(F)(F)F)cc3)nc12 [Compound 3-3, N-(1,3-dimethyl-5-(4-(trifluoromethoxy)phenyl)-1H-pyrazolo[4,3-d]pyrimidin-7-yl)-5-nitrothiophene-2-carboxamide]
- LC50 (Table 3, MTS): 1920 nM

SMILES: Cc1csc2c(NC(=O)c3ccc([N+](=O)[O-])s3)nc(N3CCC(F)(F)C3)nc12 [Compound 4-11, N-(2-(3,3-difluoropyrrolidin-1-yl)-7-methylthieno[3,2-d]pyrimidin-4-yl)-5-nitrothiophene-2-carboxamide]
- LC50 (Table 4, MTS): 3180 nM

SMILES: COc1ccc(-n2ncc3c(NC(=O)c4ccc([N+](=O)[O-])s4)nc(-c4ccc(Cl)nc4)nc32)cc1 [Compound 6-21, N-(6-(6-chloropyridin-3-yl)-1-(4-methoxyphenyl)-1H-pyrazolo[3,4,d]pyrimidin-4-yl)-5-nitrothiophene-2-carboxamide]
- LC50 (Table 6, MTS): 120 nM

SMILES: CN(C)c1ccc(-c2nc(NC(=O)c3ccc([N+](=O)[O-])s3)c3cnn(C)c3n2)cc1 [Compound 1-10, N-(6-(4-(dimethylamino)phenyl)-1-methyl-1H-pyrazolo[3,4-d]pyrimidin-4-yl)-5-nitrothiophene-2-carboxamide]
- LC50 (Table 1, MTS): > 5000 nM

SMILES: CC(C)(C)c1ccc(-c2nc(NC(=O)c3ccc([N+](=O)[O-])s3)c3cnn(C4CCCCC4)c3n2)cc1 [Compound 10-35, N-(6-(4-(tert-butyl)phenyl)-1-cyclohexyl-1H-pyrazolo[3,4,d]pyrimidin-4-yl)-5-nitrothiophene-2-carboxamide]
- LC50 (Table 10, MTS): 1330 nM

SMILES: CC(C)(C)c1ccc(-n2ncc3c(NC(=O)c4ccc([N+](=O)[O-])s4)nc(-c4cccc(F)c4)nc32)cc1 [Compound 6-80, N-(1-(4-(tert-butyl)phenyl)-6-(3-fluorophenyl)-1H-pyrazolo[3,4-d]pyrimidin-4-yl)-5-nitrothiophene-2-carboxamide]
- LC50 (Table 6, MTS): 780 nM

SMILES: CN(C)CCn1ncc2c(NC(=O)c3ccc([N+](=O)[O-])s3)nc(-c3ccc(OC(F)(F)F)cc3)nc21 [Compound 1-31, N-(1-(2-(dimethylamino)ethyl)-6-(4-(trifluoromethoxy)phenyl)-1H-pyrazolo[3,4-d]pyrimidin-4-yl)-5-nitrothiophene-2-carboxamide]
- LC50 (Table 1, MTS): 1860 nM

SMILES: CCOCCOCCOc1cc(C)c(-c2nc(NC(=O)c3ccc([N+](=O)[O-])s3)c3cnn(-c4ccc(F)cc4)c3n2)cn1 [Compound 6-139, N-(6-(6-(2-(2-ethoxyethoxy)ethoxy)-4-methylpyridin-3-yl)-1-(4-fluorophenyl)-1H-pyrazolo[3,4-d]pyrimidin-4-yl)-5-nitrothiophene-2-carboxamide]
- LC50 (Table 6, MTS): 210 nM

SMILES: O=C(Nc1nc(-c2ccc(Cl)cc2)nc2c1cnn2C1CCCCC1)c1ccc([N+](=O)[O-])s1 [Compound 10-17, N-(6-(4-chlorophenyl)-1-cyclohexyl-1H-pyrazolo[3,4-d]pyrimidin-4-yl)-5-nitrothiophene-2-carboxamide]
- LC50 (Table 10, MTS): 530 nM

SMILES: O=C(Nc1nc(-c2ccc(F)cc2)nc2c(-c3ccccc3)csc12)c1ccc([N+](=O)[O-])s1 [Compound 4-15, N-(2-(4-fluorophenyl)-7-phenylthieno[3,2-d]pyrimidin-4-yl)-5-nitrothiophene-2-carboxamide]
- LC50 (Table 4, MTS): 620 nM

SMILES: CC1CC(C)CC(n2ncc3c(NC(=O)c4ccc([N+](=O)[O-])s4)nc(-c4ccc(Cl)nc4)nc32)C1 (stereo not shown) [Compound 10-70, N-(6-(6-chloropyridin-3-yl)-1-(3,5-dimethylcyclohexyl)-1H-pyrazolo[3,4-d]pyrimidin-4-yl)-5-nitrothiophene-2-carboxamide]
- LC50 (Table 10, MTS): 960 nM

SMILES: CC1CCCN(c2nc(NC(=O)c3ccc([N+](=O)[O-])s3)c3cnn(-c4ccc(C(C)(C)C)cc4)c3n2)C1 (stereo not shown) [Compound 6-64, N-(1-(4-(tert-butyl)phenyl)-6-(3-methylpiperidin-1-yl)-1H-pyrazolo[3,4-d]pyrimidin-4-yl)-5-nitrothiophene-2-carboxamide]
- LC50 (Table 6, MTS): 1070 nM

SMILES: Cn1ncc2c(NC(=O)c3ccc([N+](=O)[O-])s3)nc(C#Cc3ccc(OC(F)(F)F)cc3)nc21 [Compound 1-14, N-(1-methyl-6-((4-(trifluoromethoxy)phenyl)ethynyl)-1H-pyrazolo[3,4,d]pyrimidin-4-yl)-5-nitrothiophene-2-carboxamide]
- LC50 (Table 1, MTS): 1670 nM

SMILES: O=C(Nc1nc(Sc2ccccc2)nc2c1cnn2-c1ccccc1)c1ccc([N+](=O)[O-])s1 [Compound 5-15, 5-nitro-N-(1-phenyl-6-(phenylthio)-1H-pyrazolo[3,4-d]pyrimidin-4-yl)thiophene-2-carboxamide]
- LC50 (Table 5, MTS): > 5000 nM

SMILES: CC(C)(C)c1ccc(-n2ncc3c(NC(=O)c4ccc([N+](=O)[O-])s4)nc(N4CCC(F)(F)CC4)nc32)cc1 [Compound 6-67, N-(1(4-(tert-butyl)phenyl)-6-(4,4-difluoropiperidin-1-yl)-1H-pyrazolo[3,4-d]pyrimidin-4-yl)-5-nitrothiophene-2-carboxamide]
- LC50 (Table 6, MTS): 730 nM

SMILES: CC1(C)CCC(n2ncc3c(NC(=O)c4ccc([N+](=O)[O-])s4)nc(-c4ccc(F)cc4)nc32)CC1 [Compound 10-61]
- LC50 (Table 10, MTS): 550 nM

SMILES: O=C(Nc1nc(-c2cccc(F)c2)nc2c1cnn2-c1cccc(Cl)c1)c1ccc([N+](=O)[O-])s1 [Compound 6-34, N-(1-(3-chlorophenyl)-6-(3-fluorophenyl)-1H-pyrazolo[3,4-d]pyrimidin-4-yl)-5-nitrothiophene-2-carboxamide]
- LC50 (Table 6, MTS): 190 nM

SMILES: Cc1ccn(-c2nc(NC(=O)c3ccc([N+](=O)[O-])s3)c3cnn(-c4ccc(F)cc4)c3n2)n1 [Compound 6-108]
- LC50 (Table 6, MTS): 90 nM

SMILES: CCCOc1ccc(-c2nc(NC(=O)c3ccc([N+](=O)[O-])s3)c3cnn(-c4ccc(F)cc4)c3n2)cc1 [Compound 6-132]
- LC50 (Table 6, MTS): 430 nM

SMILES: Cc1ccccc1-n1ncc2c(NC(=O)c3ccc([N+](=O)[O-])s3)nc(N3CCC[C@H]3CO)nc21 [Compound 6-1, (S)—N-(6-(2-(hydroxymethyl)pyrrolidin-1-yl)-1-(o-tolyl)-1H-pyrazolo[3,4-d]pyrimidin-4-yl)-5-nitrothiophene-2-carboxamide]
- LC50 (Table 6, MTS): > 3000 nM
